Assay results published in patent US10251841B2, “Polymeric depots for localization of agent to biological sites” (TRUSTEES OF BOSTON UNIVERSITY, priority 2011, dated 2019).

Assays:
Experiment in all cases: Cell proliferation assay, MTT, 5 days
Details in all cases: media containing 10% FBS
Melanoma = assay type: cell-based, murine
Procedure: (§1) Melanoma B16 (murine), Calu 6 (human lung carcinoma), A549 (human lung carcinoma), LLC (murine Lewis Lung Carcinoma), NCI-H460 (human lung), MSTO-211H (human mesothelioma), MSTO-211H-Luc (luciferase transfected human mesothelioma), MCF7 (human breast), LMS05 (human sarcoma) were incubated (37° C., 5% CO2) with MEM (with 10% fetal bovine serum (FBS), 1% essential amino acids, and 1% Penicillin/Streptomyocin with L glutamine (Pen/Strep), F-12 HAM (with 10% FBS and 1% Pen/Strep), DMEM (with 10% FBS and 1% Pen/Strep) media, or DMEM (with 10% FBS and 1% GPS), with media changes once every three days. When not cultured, all cell lines were stored in RPMI freezing media at −80° C. (with 50% FBS, 40% RPMI and 10% dimethyl sulfoxide (DMSO)). Cell lines were trypsinized from the plates and seeded into 96 well plates at a concentration of 3000 cells per well. All cell lines were cultured for a period of at least seven days before being tested in cell uptake or proliferation assays etc.
(§2) Cell proliferation assays testing the effects of paclitaxel encapsulated within nanoparticles were performed using three tumor cell lines. Lewis Lung Carcinoma (LLC), Melanoma, and Calu6 (human lung cancer) cell lines were plated at 3,000 cells/well and when established, cultured in media with/without paclitaxel. […] At the end of 5 days, tumor cell proliferation was assessed via MTT analysis. […]

[1] = tested on: Lewis Lung Carcinoma (LLC); assay type: cell-based, murine
Procedure: as §1, §2

[2] = tested on: Calu6 (human lung cancer); assay type: cell-based
Procedure: as §1, §2

Measured: concentration that reliably inhibits growth

CC(=O)O[C@H]1C(=O)[C@@]2(C)[C@H]([C@H](OC(=O)c3ccccc3)[C@]3(O)C[C@H](OC(=O)[C@H](O)[C@@H](NC(=O)c4ccccc4)c4ccccc4)C(C)=C1C3(C)C)[C@]1(OC(C)=O)CO[C@@H]1C[C@@H]2O [paclitaxel]
1 to 10 ng/mL: all assays above
